# From US20060057639A1, “CaMKII/calcium channel phosphorylation-related compositions and methods” (priority 2004, published 2006)
# What was measured:
# [1] = target: T1, interaction of autophosphorylated CaMKII with α1C amino acids 1581-1690 (Rattus norvegicus, UniProt P11275); assay: GST pull down of autophosphorylated α-CaMKII with α1C 1581-1690 fusion protein, peptide interference; type: binding; details: 40 μM peptide; 20 nM autophosphorylated α-CaMKII
# T1 construct: made in house; host or cells: GST fusion from bacteria
# Procedure: (B) Immunoblot with CBα2 after GST pull down of purified autophosphorylated α-CaMKII (20 nM), using α1C amino acids 1581-1690 fused to GST. Pull down assay performed in the presence of 40 μM of the indicated peptide or the peptide diluent DMSO. (C) Immunoblots with CBα2 or an anti-CaM antibody after a GST pull down assay, using α1C amino acids 1581-1690 (WT), a ^1644TVGKFY^1649→EEDAAA mutant (Mut6), or GST alone, of purified autophosphorylated CaMKII (left) or CaM (right). Top panels show a Ponceau stain of each fusion protein. […] Asterisk indicates p<0.001 for a one-way analysis of variance followed by a Dunnett's test to identify specific pair-wise differences between the means for Mut6 vs. wt and GST vs. wt, n=4-8. […] Top panels show a Ponceau stain of each fusion protein.
# Peptides spanning α1C residues 1581-1690 have previously been described (Pitt et al., 2001). The NMDA-L peptide (Bayer et al., 2001), peptides AC-2 (Hanson et al., 1989), AC-3i (Braun and Schulman, 1995), and AC-3c (Braun and Schulman, 1995) have been described elsewhere.
# The binding reactions were accomplished in Tris binding buffer (50 mM Tris, 150 mM NaCl, 0.1% T-20 at pH 7.4 ml plus 0.1% BSA) containing 20 nM purified CaMKII. The total protein from the HEK293 cell lysates added to each binding reaction ranged from 9-22 μg, determined by normalizing for the amount of CaMKII activity (Singla et al., 2001). Pre-autophosphorylayion of CaMKII (purified and lysate) was accomplished at 4° C. for 5 min in Tris binding buffer plus 1 mM CaCl2, 5 μM CaM, 1 mM ATP, and 5 mM MgCl2 to restrict the sites of autophosphorylation to primarily Thr286 (Ikeda et al., 1991; Lai et al., 1987; Lou and Schulman, 1989). Final concentration of these components in the binding reaction (1:40) was 0.025 mM CaCl2, 0.125 μM CaM, 0.025 mM ATP, and 0.125 mM MgCl2. The binding reaction was rocked for 1 h at 4° C. and the beads extensively washed in Tris binding buffer (2-3× for 5 mins each). […] CaMKII binding was quantified using densiotometric measurement of band intensity using KODAK 1D Image Analysis Software (Eastman Kodak, Company). […]
# [2] = system: L-type Ca^2+ currents in cerebellar granule cells; assay: Patch-clamp recording of Ca2+-dependent facilitation of L-type currents in cultured cerebellar granule cells; type: cell-based, mouse; details: 2 μM peptide in patch pipette; Ca^2+ as charge carrier; train of five pulses; without peptide facilitation averaged ~50%
# Procedure: Dissociated cerebellar granule cells were prepared from 7-day old C57/BL6 mouse cerebella and grown in culture by a published protocol (Piedras-Renteria and Tsien, 1998; Randall and Tsien, 1995). The cerebellar granule cells were maintained in Minimal Essential Medium (Invitrogen) supplemented with 10% fetal bovine serum, glucose 5 mg/liter, transferrin 100 mg/liter, insulin 25 mg/liter, glutamine 300 mg/liter, and potassium chloride 20 mM. Cells were plated on Matrigel (Collaborative Biomedical Product) treated glass coverslips in 24-well chambers and maintained in a humidified, 37° C. incubator with […]/5% CO2. Cells were maintained for 6 to 9 days in culture prior to electrophysiological experiments. […]
# Cerebellar granule cells, identified on the basis of morphology and size, comprised >90% of the cells in the primary culture. […] Voltage-gated Ca^2+ and Ba^2+ currents were recorded from cells depolarized to 0 mV with five 20 ms pulses (50 ms interpulse interval) from a −90 mV holding potential. […]
# [3] = target: cloned L-type channels (subunit α1C77) (Homo sapiens, UniProt Q13936); assay: Check for use-dependence of diltiazem block of calcium currents supported by cloned L-type channels; type: cell-based; details: same solutions and voltage protocol as in granule cells; diltiazem 100 μM
# Procedure: Dissociated cerebellar granule cells were prepared from 7-day old C57/BL6 mouse cerebella and grown in culture by a published protocol (Piedras-Renteria and Tsien, 1998; Randall and Tsien, 1995). The cerebellar granule cells were maintained in Minimal Essential Medium (Invitrogen) supplemented with 10% fetal bovine serum, glucose 5 mg/liter, transferrin 100 mg/liter, insulin 25 mg/liter, glutamine 300 mg/liter, and potassium chloride 20 mM. Cells were plated on Matrigel (Collaborative Biomedical Product) treated glass coverslips in 24-well chambers and maintained in a humidified, 37° C. incubator with […]/5% CO2. Cells were maintained for 6 to 9 days in culture prior to electrophysiological experiments. HEK293 cells stably transfected with the α2-δ and β1C subunits (HEKα2β1) were grown in Dulbecco's Modified Eagle's Medium containing 10% v/v calf serum, penicillin (100 units/ml), streptomycin (100 μg/ml), and kept under positive selection with Geneticin (400 μg/ml) while being maintained as described above. cDNAs encoding the α1C77 subunit (Zühlke and Reuter, 1998) and the green fluorescent protein were transiently transfected into HEKα2β1 cells by using the Lipofectamine2000 reagent (Invitrogen). Electrophysiological experiments were performed >24 hrs after transfection.
# [4] = system: CaMKII; assay: CaMKII dephosphorylation using PP1, autonomous activity measurement; type: biochemical; details: n=4
# Procedure: Immunoblots with CBα2 or a phospho-specific CaMKII monoclonal antibody after GST pull down assays, using α1C amino acids 1509-1950 and 20 nM autophosphorylated α-CaMKII. (A) 5 mM EGTA was present in the binding reaction and/or in the wash; in (B), purified recombinant PP1 was added before (PP1-Pre) or after (PP1-Post) the binding reaction in the presence or absence of 5 mM EGTA, as indicated. (C) Time course of reversal of CaMKII autonomous activity following PP1 treatment in solution (n=4). (D) Activity measurements, using peptide AC-2 as a substrate, of CaMKII recovered in GST pull down assays, using α1C amino acids 1509-1950. Ca^2+/CaM-dependent and autonomous activity measurements of CaMKII recovered after treatment with recombinant PP1 for 30 min (PP1) or no treatment (−) in the binding assay (n=4). (E) Proposed mechanism of CaMKII binding to α1C to form a local and dedicated Ca^2+ spike integrator for CDF. […] Ca ^2+/CaM activation and Thr 286 autophosphorylation displace the CaMKII autoregulatory domain within the catalytic lobe to activate the subunit (yellow) and to expose an α1C tethering site. […] CaMKII may remain tethered to other cytoplasmic domains of α1C, as well. […]
# Sequence of CaMKII (P11275 whole entry, the tested form may be a part): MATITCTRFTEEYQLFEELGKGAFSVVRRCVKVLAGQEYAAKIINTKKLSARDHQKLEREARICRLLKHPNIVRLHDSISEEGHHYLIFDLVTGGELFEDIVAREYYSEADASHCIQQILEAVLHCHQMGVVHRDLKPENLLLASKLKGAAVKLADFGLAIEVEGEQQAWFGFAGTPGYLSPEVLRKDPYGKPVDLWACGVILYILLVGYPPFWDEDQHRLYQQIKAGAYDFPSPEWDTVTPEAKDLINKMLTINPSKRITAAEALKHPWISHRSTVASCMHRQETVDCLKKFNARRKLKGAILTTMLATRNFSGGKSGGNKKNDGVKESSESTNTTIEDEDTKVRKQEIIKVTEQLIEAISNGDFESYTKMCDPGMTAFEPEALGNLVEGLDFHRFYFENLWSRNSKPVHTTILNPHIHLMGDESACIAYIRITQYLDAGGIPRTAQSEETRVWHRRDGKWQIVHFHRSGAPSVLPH
# Sequence of cloned L-type channels (subunit α1C77) (Q13936 1-2138 isoform Q13936-20): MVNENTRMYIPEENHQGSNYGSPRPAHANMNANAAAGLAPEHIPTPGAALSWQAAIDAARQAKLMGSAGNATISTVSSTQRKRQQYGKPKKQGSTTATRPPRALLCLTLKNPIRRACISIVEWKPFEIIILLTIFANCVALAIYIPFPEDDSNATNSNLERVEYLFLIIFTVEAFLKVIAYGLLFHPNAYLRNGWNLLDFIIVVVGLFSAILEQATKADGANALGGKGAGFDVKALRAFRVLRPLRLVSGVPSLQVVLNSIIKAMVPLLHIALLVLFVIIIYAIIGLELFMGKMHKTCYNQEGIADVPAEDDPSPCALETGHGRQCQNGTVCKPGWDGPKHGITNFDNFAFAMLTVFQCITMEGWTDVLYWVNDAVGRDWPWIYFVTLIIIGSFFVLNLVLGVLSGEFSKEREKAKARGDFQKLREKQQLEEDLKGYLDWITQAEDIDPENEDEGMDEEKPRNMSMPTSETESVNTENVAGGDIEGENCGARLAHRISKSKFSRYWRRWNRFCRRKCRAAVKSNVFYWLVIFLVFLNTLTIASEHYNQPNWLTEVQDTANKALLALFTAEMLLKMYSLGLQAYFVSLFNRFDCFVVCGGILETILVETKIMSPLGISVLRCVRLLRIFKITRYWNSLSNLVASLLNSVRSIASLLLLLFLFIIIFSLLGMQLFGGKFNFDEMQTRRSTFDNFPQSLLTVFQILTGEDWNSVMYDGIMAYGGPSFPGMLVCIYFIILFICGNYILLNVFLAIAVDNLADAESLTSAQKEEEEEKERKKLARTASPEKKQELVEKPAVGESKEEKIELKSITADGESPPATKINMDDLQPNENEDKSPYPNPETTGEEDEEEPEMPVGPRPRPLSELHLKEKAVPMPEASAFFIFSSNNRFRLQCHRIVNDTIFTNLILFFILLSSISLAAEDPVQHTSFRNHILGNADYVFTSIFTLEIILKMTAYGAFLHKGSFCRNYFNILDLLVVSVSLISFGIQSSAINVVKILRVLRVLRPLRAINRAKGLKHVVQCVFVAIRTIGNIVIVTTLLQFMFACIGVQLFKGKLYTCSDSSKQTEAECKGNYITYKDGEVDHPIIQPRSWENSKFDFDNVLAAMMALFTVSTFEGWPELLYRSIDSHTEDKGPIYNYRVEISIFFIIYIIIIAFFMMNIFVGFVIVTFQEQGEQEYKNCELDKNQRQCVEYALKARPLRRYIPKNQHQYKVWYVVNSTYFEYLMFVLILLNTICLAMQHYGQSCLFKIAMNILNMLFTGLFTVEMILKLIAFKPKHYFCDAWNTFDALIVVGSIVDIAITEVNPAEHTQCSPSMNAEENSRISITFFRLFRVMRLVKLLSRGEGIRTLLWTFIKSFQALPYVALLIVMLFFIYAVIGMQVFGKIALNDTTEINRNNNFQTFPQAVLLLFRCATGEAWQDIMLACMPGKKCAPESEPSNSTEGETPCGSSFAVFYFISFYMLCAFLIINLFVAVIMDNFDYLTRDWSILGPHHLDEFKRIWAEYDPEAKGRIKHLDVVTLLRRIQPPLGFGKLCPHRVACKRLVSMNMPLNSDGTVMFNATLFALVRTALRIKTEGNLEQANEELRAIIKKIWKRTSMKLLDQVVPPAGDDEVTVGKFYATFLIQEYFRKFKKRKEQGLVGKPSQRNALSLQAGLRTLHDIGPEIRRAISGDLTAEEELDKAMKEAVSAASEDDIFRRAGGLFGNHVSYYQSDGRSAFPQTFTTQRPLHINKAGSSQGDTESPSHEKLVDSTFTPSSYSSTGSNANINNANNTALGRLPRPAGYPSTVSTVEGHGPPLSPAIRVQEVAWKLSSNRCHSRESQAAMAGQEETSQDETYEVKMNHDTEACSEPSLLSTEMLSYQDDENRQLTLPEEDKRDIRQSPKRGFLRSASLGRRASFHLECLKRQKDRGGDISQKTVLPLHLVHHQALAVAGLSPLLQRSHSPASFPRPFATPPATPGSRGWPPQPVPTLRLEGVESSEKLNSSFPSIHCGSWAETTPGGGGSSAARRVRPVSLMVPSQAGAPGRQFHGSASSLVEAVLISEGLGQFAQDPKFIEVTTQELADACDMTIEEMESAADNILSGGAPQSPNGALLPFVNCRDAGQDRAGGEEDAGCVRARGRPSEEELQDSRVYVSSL
# Sequence of cloned L-type channels (subunit α1C77) (P54289 25-956 partner limits assumed): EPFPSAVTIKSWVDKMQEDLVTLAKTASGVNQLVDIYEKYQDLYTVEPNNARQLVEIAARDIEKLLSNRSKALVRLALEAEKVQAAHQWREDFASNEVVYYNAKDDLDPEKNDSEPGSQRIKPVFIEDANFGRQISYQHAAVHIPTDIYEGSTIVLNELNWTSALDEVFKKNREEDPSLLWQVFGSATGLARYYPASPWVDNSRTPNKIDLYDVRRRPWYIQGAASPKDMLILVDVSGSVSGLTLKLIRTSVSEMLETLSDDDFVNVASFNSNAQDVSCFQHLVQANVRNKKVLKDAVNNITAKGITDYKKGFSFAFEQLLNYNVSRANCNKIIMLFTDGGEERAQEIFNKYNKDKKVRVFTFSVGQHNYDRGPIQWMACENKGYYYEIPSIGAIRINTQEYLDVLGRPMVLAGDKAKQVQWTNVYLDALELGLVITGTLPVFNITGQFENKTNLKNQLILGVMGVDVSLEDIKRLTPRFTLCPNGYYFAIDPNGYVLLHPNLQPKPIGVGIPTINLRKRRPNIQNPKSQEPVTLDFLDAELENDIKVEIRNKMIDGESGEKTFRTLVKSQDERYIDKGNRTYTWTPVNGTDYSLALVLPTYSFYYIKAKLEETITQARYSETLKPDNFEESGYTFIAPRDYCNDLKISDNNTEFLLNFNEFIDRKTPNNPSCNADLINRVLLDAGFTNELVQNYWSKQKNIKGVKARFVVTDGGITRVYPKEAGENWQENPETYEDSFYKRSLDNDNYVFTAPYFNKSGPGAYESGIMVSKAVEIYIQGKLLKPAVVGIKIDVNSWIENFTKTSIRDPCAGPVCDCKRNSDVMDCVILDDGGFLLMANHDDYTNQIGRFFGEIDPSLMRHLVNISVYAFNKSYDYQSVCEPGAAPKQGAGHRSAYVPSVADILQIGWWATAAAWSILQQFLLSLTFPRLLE
# Sequence of cloned L-type channels (subunit α1C77) (P54289 957-1103 partner limits assumed): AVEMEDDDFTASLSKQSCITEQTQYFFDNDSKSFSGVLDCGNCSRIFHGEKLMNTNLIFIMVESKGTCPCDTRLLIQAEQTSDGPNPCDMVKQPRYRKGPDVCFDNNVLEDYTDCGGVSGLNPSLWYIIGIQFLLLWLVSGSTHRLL
# Sequence of cloned L-type channels (subunit α1C77) (Q02641 whole entry partner): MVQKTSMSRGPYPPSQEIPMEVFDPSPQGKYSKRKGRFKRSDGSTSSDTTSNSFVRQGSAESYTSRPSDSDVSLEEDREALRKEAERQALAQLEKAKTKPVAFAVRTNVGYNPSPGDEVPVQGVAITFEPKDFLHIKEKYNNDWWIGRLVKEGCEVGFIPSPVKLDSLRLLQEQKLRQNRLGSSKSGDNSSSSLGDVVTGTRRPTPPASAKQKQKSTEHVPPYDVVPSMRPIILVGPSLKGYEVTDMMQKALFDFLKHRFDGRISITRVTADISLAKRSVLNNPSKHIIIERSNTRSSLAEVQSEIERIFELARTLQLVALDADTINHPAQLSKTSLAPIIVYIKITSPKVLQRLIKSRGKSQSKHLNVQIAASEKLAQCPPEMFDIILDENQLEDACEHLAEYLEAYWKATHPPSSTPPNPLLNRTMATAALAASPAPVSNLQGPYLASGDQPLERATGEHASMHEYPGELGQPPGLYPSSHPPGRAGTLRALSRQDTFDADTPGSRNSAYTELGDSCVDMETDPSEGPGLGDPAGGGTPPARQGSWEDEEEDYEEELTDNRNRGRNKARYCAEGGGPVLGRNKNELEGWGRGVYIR
molecule,measurement,setting,value
"1639-1660: ~22 aa peptide generated from α1C residues 1639-1660 (Pitt et al., 2001) (KIWKRTSMKLLDQVVPPAGDDE; UniProt Q13936 1639-1660, looked up, fragment)",interaction of the kinase with the 1581-1690 fusion protein in presence of peptide,[1],dramatically reduced
autocamtide-2-related inhibitory peptide (KKALRRQEAVDAL),decrease in peak L-type current over the course of the depolarizing pulse train,[2],~25%
COc1ccc([C@@H]2Sc3ccccc3N(CCN(C)C)C(=O)[C@@H]2OC(C)=O)cc1 [diltiazem],use-dependence of diltiazem block of calcium currents,[3],none were found
"1589-1610: ~22 aa peptide of α1C residues 1589-1610, site important for tethering of apoCaM (KRLVSMNMPLNSDGTVMFNATL; UniProt Q13936 1589-1610, looked up, fragment)",interaction of the kinase with the 1581-1690 fusion protein in presence of peptide,[1],not inhibited
"1615-1636: ~22 aa peptide of α1C residues 1615-1636, site important for tethering of apoCaM (RTALRIKTEGNLEQANEELRAI; UniProt Q13936 1615-1636, looked up, fragment)",interaction of the kinase with the 1581-1690 fusion protein in presence of peptide,[1],not inhibited
"PP1: Hisx6-tagged protein phosphatase 1 catalytic subunit, purified recombinant","remaining autonomous activity of α1C-bound CaMKII, % of that without PP1 treatment","[4]; PP1 for 30 min, peptide AC-2 as substrate",1.2±0.6%
same,time to complete dephosphorylation (loss of autonomous activity) of soluble kinase,[4]; soluble CaMKII in solution,≤ 30 min
